Data set [1] concerns asexual P. falciparum 3D7 wild-type parasites. The experiment in a line: P. falciparum asexual growth inhibition assay (SYBR Safe DNA replication). The following applies: for P. falciparum asexual growth, percentage of control: replicate values, source data Fig. 2B; for IC50 / IC90: Plasmodium falciparum; for IC50: read-out: IC50, P. falciparum asexual growth inhibition. In kind it is cell-based, Plasmodium falciparum. The gist of the method:
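Sorbitol-synchronised ring-stage cultures at 1% parasitaemia and 1% haematocrit were exposed to 2-fold compound dilutions at 37 °C under microaerophilic conditions for 24, 48 or 72 h. Growth was read by SYBR Safe fluorescence of freeze-thaw lysates, with 200 nM chloroquine or artesunate defining background.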

Data set [2] is described as follows: Human hepatoma viability assay (CellTiter-Blue). The following applies: human, Huh7 hepatoma cells, 0.137174210 uM; replicate data points; read-out: Huh7 viability, dose-response data points (Figure 3F). It counts as cell-based. The gist of the method:
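Huh7 cells (10,000/well) were seeded and treated the next day with serially diluted compound or DMSO, with media partially renewed with fresh dilutions over two days.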
On the technique in general: The colour change of resazurin is a common sign of viable cells or microbes.

In data set [3] the test system is P. berghei liver stage parasites. The experiment in a line: P. berghei liver stage parasite size and number (fluorescence microscopy, coverslips). It counts as cell-based, Plasmodium berghei. On the procedure: Uninfected wells served as a control for background luminescence. […] No other manipulations were performed.
Appendix Fraser/Curtis et al.
For measurement of parasite size and number, 20,000 Huh7 cells were seeded onto collagen-coated coverslips on the day prior to infection. As above, 10,000 – 20,000 sporozoites were added per slide, allowed to invade for 60 minutes after centrifugation, and then incubated for […]
Infected cells were fixed with 3% paraformaldehyde in PBS, permeabilized with 0.3% v/v Triton X-100, and labelled with 1:1,000 polyclonal chicken anti-GFP (Abcam ab13970), 1:2,000 goat anti-chicken Alexa […]
intrinsic GFP fluorescence could be detected, as well as Fluoromount-G® containing 4′,6-diamidino-2-phenylindole (DAPI; Southern Biotech), to stain parasite and host cell nuclei.
Images were collected on a Zeiss Axio Observer Z2 microscope with a Zeiss AxioCam MRm at 200× or 400× (for quantification) or 630× (for cell images) magnification, with a resolution of […], 163 nm or 102 nm per pixel respectively. Alexa Fluor™ 546 fluorescence was detected at 546/13 nm excitation and 675/35 nm emission. […]
fluorescence was detected at 470/20 nm excitation and 525/25 nm emission. DAPI fluorescence (nucleic acid) was detected at 359/24 nm ex and 445/25 nm em. For quantification, all cells on each coverslip were imaged under the same settings for each experiment. P. berghei liver stage size was measured as described (24) using Fiji ImageJ (25). Liver-stage parasites were identified and delineated in fluorescent images using defined threshold levels, and the identified fluorescent areas were used to measure parasite area. The number of parasites on each coverslip was also counted. […]
manipulations were performed.

Where [4] appears, read: 3D7, 24 h, starting at ring stages.

The values below come from publication PMC11251039, “Harnessing cholesterol uptake of malaria parasites for therapeutic applications” (EMBO Molecular Medicine, 2024).

Molecules are shown by their SMILES. Several values for one entry are separate records, joined by “and”; a condition that tells them apart may be missing. Identical values can stand only once. Like-named read-outs stand apart in the source and are kept apart here.

Consider `CC(C)OC(=O)CCC(=O)O[C@H]1CC[C@H]2[C@@H]3CC=C4C[C@@H](O)CC[C@]4(C)[C@H]3CC[C@]12C` [C-17-link], for which the “P. falciparum asexual growth, percentage of control” value was 108.2% and 98.65% and 104.4% and 77.73% and 107.4% and 72.24% and 105.4% and 89.91% and 101.4% in data set [1] (1.562500000 uM, 24 h, listed as HJB8a53); 87.28% and 79.93% and 102.9% and 88.97% and 110.9% and 91.2% and 98.89% and 92.59% and 99.55% in data set [1] (3.125000000 uM, 24 h, listed as HJB8a53); 91.48% and 91.92% and 90.32% and 56.7% and 84% and 91.24% and 89.81% and 87.22% and 88.93% in data set [1] (6.250000000 uM, 24 h, listed as HJB8a53); 92.85% and 68.5% and 79.1% and 86.73% and 62.26% and 77.95% and 77.18% and 79.4% and 77.07% in data set [1] (12.500000000 uM, 24 h, listed as HJB8a53); 63.84% and 71.98% and 51.99% and 71.68% and 75.89% and 90.82% and 60.89% and 60.24% and 75.04% in data set [1] (25.000000000 uM, 24 h, listed as HJB8a53); 21.83% and 36.37% and 18.23% and 26.53% and 42.29% and 44.3% and 28.27% and 41.39% and 35.03% in data set [1] (50.000000000 uM, 24 h, listed as HJB8a53). Moreover, in data set [1] (100.000000000 uM, 24 h, listed as HJB8a53), the “P. falciparum asexual growth, percentage of control” value is 3.756% and 9.306% and -2.555% and -31.33% and 5.372% and 1.633% and -19.35% and 8.501% and 11.78%. Also, the IC50 – broadly, the midpoint of a concentration-inhibition curve – stood at 31.6 µM in data set [1] (3D7, 24 h, 24 h, starting at ring stages); 40.2 µM in data set [1] (3D7, 48 h, 48 h); 30.3 µM in data set [1] (3D7, 72 h, 72 h).
Turning to `COc1cc(NC(C)CCCNC(=O)CCC(=O)OC(C)C)c2ncccc2c1` (stereo not drawn) [PQ-link], the “P. falciparum asexual growth, percentage of control” value in data set [1] (0.390625000 uM, 24 h, listed as BC9B) is 112.3% and 89.93% and 91.19% and 112.1% and 102.3% and 68.21% and 112.6% and 108.2% and 99.03%; in data set [1] (0.781250000 uM, 24 h, listed as BC9B) it was 111.4% and 122.1% and 101.9% and 105.4% and 82.4% and 103% and 111.6% and 99.14% and 89.9%; in data set [1] (1.562500000 uM, 24 h, listed as BC9B) it was 124.5% and 109.9% and 95.57% and 96.52% and 118.5% and 100.1% and 113.4% and 107.6% and 105.7%; in data set [1] (3.125000000 uM, 24 h, listed as BC9B), 111% and 101.9% and 103% and 119.5% and 108.6% and 102.2% and 109.1% and 102.4% and 93.98%; in data set [1] (6.250000000 uM, 24 h, listed as BC9B), 79.77% and 100.5% and 104.2% and 100.4% and 95.65% and 80.04% and 97.39% and 93.98% and 89.23%; in data set [1] (12.500000000 uM, 24 h, listed as BC9B), 91.36% and 89.64% and 70.76% and 87.57% and 76.11% and 68.83% and 96.23% and 85.41% and 71.02%. Moreover, the “P. falciparum asexual growth, percentage of control” value in data set [1] (25.000000000 uM, 24 h, listed as BC9B) was 68.25% and 69.29% and 40.14% and 53.66% and 42.59% and 27.83% and 74.48% and 57.35% and 79.45%; in data set [1] (50.000000000 uM, 24 h, listed as BC9B) it was 54.3% and 2.851% and -9.844% and -3.605% and -29.04% and -23.19% and 22.95% and 7.441% and 8.158%. For the same molecule, the IC50 was determined as 21.9 µM in data set [1] (3D7, 48 h); 16.1 µM in data set [1] (3D7, 72 h); 25.2 µM in data set [1] (setting [4]). Besides, the viability (as a rule, the share of living cells, or the viability signal relative to a control) at 48 h, 0.137174 µM in data set [2] came out at 99.3%.
With `COc1cc(NC(C)CCCN)c2ncccc2c1` (stereo not drawn) [Primaquine, primaquine, reference compound], the “P. falciparum asexual growth, percentage of control” value in data set [1] (0.048828130 uM, 24 h) was 103.5% and 112.3% and 122.3% and 109.6% and 103.8% and 107.6%; in data set [1] (0.097656250 uM, 24 h), 133.8% and 115.8% and 109.7% and 98.88% and 101.1% and 114.9%; in data set [1] (0.195312500 uM, 24 h), 92.88% and 92.1% and 75.42% and 87.41% and 53.27% and 109.2% and 104.7% and 89.49%; in data set [1] (0.390625000 uM, 24 h) it was 101% and 92.22% and 85.08% and 86.3% and 91.98% and 87.62% and 106.4% and 103.7% and 80.96%; in data set [1] (0.781250000 uM, 24 h), 87.28% and 86.95% and 87.11% and 97.7% and 104.2% and 88.59% and 104.3% and 96.91% and 94.25%; in data set [1] (1.562500000 uM, 24 h), 104.9% and 96.53% and 90.19% and 106.5% and 37.96% and 92.95% and 112.9% and 86.68% and 94.95%. In addition, the “P. falciparum asexual growth, percentage of control” value in data set [1] (3.125000000 uM, 24 h) is 98.46% and 91.72% and 71.7% and 85.23% and 66.97% and 105.3% and 93.44% and 88.46% and 77.37%; in data set [1] (6.250000000 uM, 24 h), 70.33% and 75.07% and 74.44% and 55.89% and 62.38% and 52.2% and 93.44% and 79.9% and 76.14%; in data set [1] (12.500000000 uM, 24 h), 59.74% and 51.28% and 54.52% and 22.36% and 27.69% and 24.85% and 101.7% and 67.6% and 71.11%; in data set [1] (25.000000000 uM, 24 h), 32.29% and 12.73% and 20.21% and 8.779% and -12.09% and 0.142% and 58.69% and 51.9% and 34.08%; in data set [1] (50.000000000 uM, 24 h), 4.003% and -4.24% and -21.02% and -13.23% and -31.85% and -34.48% and 21.18% and 8.951% and 16.84%. The IC90 (in general, the point of the concentration-response curve where the effect stands at 90%) in data set [1] (3D7, 24 h) is 41 µM; in data set [1] (3D7, 72 h) it was 11.4 µM. For the same molecule, the IC50 in data set [1] (3D7, 48 h) stood at 6.5 µM; in data set [1] (3D7, 72 h) it was 2.6 µM; in data set [1] (setting [4]), 11.5 µM. Besides, the “Reduction of parasite size (area) compared to untreated parasites” value in data set [3] (0.3 µM, 48 h) was “not at 0.3 µM”; in data set [3] (3 µM, 48 h), 61%. Further, the “Normalised mean size of liver stage parasites, percentage of the solvent control” value in data set [3] (0.3 μM, 48 h, per coverslip, source data Fig. 3C) was 100% and 99.34% and 108% and 106.3% and 110.6% and 86.33%. For the same molecule, the “Figure 3C - Individual Data Points (P. berghei liver stage parasite size, individual parasites)” value in data set [3] (0.3 μM, Assay 2, first replicate column, individual data points) is 43.02 and 107.9 and 92.89 and 48.67 and 95.55 and 31.33 and 39.11 and 132.2 and 73.2 and 29.42.
